Source: ChEMBL document CHEMBL1201862, “PubChem BioAssay data set” (2004)
Activity calls are given as the source filed them.

Key:
[1] = Trypanosoma cruzi growth suppression in host cells – NIH3T3 host cells, beta-gal luminescence, confirmation (AID 2044); format: functional, cell-based;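 also: intracellular parasites grown in NIH/3T3 mouse fibroblasts as host cells; luminescent beta-galactosidase reporter signal from transgenic T. cruzi replicating inside host cells; inhibitors lower the luminescence signal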
[2] = Luminescence Cell-Based Dose Retest to Confirm Inhibitors of Cancer Stem Cells. [Related pubchem assays (depositor defined):AID2717, AID2721]; format: functional; conditions: Homo sapiens
[3] = NIH3T3 cell viability loss – ATP luminescence, mouse fibroblasts, counter-screen, dose response (AID 2010); format: functional, cell-based;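 also: cells exposed to compound for about 90 hours before reading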
Cytochrome P450 2C9 = Cytochrome P450 2C9 (Homo sapiens, UniProt P11712)
Cytochrome P450 2C9, sequence (P11712 whole entry): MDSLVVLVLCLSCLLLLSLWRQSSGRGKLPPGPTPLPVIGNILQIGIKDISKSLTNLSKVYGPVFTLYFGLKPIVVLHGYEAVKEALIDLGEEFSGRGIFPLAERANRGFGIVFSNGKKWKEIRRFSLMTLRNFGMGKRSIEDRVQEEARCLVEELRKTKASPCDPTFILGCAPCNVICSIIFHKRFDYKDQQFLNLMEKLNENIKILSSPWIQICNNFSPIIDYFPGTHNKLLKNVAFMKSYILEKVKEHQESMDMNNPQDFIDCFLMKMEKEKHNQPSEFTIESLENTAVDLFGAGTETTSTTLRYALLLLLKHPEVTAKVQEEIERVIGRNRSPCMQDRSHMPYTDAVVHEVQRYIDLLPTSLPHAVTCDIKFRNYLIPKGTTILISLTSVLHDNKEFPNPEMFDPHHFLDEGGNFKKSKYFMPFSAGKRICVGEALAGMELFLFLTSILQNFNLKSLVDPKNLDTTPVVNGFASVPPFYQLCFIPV

Cytochrome P450 1A2 = target: T1, Cytochrome P450 1A2 (Homo sapiens, UniProt P05177);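 also: PubChem cytochrome P450 panel assay, CYP1A2 panel member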
T1 sequence (P05177 whole entry): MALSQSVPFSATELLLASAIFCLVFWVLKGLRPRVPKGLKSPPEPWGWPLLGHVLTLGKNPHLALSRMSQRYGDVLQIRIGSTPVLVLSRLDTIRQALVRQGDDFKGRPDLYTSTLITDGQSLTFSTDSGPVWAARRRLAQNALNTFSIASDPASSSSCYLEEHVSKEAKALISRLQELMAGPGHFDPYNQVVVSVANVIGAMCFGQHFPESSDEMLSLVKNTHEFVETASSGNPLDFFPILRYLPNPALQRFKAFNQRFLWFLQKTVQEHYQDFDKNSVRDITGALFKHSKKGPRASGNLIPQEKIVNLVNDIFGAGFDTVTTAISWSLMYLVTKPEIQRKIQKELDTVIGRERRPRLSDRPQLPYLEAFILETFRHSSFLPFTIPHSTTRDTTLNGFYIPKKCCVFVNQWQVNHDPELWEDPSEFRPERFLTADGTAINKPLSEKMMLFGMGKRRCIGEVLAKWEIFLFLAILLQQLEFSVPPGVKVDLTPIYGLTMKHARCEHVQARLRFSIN

Streptococcus = test: GAS UMAA2166 growth inhibition – luminescence, BacTiterGlo, counter-screen for streptokinase expression inhibitor project, dose response (AID 1915); format: functional, organism-based;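 also: potency for reduction of bacterial viability or growth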
[4] = tested on: Streptococcus sp. 'group A'; test: Streptococcus pyogenes SK(-)GAS viability under kanamycin – luminescence, BacTiterGlo, confirmation, counter-screen for streptokinase expression inhibitor project, dose response (AID 1900); format: functional, organism-based
Cytochrome P450 3A4 = Cytochrome P450 3A4 (Homo sapiens, UniProt P08684);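 also: CYP3A4 tested as one member of a cytochrome P450 panel screen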
Cytochrome P450 3A4, sequence (P08684 whole entry): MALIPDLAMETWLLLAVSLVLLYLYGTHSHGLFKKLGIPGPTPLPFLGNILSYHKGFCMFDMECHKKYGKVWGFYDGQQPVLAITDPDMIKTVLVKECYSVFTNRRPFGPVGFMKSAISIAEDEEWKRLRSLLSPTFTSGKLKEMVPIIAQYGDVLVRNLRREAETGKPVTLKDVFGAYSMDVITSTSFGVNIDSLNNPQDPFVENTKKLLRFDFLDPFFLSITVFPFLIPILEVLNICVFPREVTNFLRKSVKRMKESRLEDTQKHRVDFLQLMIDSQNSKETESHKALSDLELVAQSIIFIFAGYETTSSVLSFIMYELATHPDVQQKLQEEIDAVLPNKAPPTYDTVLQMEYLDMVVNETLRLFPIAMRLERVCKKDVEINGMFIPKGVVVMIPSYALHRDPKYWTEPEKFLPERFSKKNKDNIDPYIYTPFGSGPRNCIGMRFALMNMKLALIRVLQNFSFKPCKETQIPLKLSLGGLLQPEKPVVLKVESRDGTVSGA

Cytochrome P450 2C19 = Cytochrome P450 2C19 (Homo sapiens, UniProt P33261); test: Cytochrome panel assay with activity outcomes. Panel member name: p450-cyp2c19 Compounds with AC50 equal or less than 10 uM are considered active; format: functional
Cytochrome P450 2C19, sequence (P33261 whole entry): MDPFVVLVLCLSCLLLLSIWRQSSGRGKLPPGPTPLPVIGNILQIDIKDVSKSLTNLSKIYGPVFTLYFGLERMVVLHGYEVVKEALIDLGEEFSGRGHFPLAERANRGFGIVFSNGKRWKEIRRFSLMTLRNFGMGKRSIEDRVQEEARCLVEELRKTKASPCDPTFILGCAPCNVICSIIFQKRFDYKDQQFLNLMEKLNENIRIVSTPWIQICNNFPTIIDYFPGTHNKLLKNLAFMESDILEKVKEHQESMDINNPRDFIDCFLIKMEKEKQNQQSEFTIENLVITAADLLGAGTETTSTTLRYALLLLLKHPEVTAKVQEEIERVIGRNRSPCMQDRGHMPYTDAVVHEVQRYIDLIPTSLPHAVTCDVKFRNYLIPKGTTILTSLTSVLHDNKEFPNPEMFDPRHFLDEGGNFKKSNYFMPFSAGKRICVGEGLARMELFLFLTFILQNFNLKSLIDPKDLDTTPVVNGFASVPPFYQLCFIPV

For `Cc1cccc(-n2cc(CN(C)Cc3nccn3C)c(-c3cccc(F)c3)n2)c1`, the EC50 [1] was 1.79 µM (active), the AC50 [2] was 13.5 µM (active) and the EC50 [3] was 11.8 µM (active).

For `CC1(C)CCCN(C(=O)N2c3ccccc3Sc3ccccc32)C1`, the AC50 (Cytochrome P450 2C9) was 15.8 µM (inconclusive).

For `CCOc1nc(NC(C)C)nc(NC(C)C)n1`, the AC50 (Cytochrome P450 1A2) was 5.01 µM (inconclusive).

In the case of `CCn1c(-c2ccccc2)cnc1S`, the EC50 (Streptococcus) is reported as > 150 µM (not active) and the EC50 [4] is reported as > 150 µM (not active).

With `CCCc1[nH]c2ccc(C#N)cc2c1CCC` the AC50 [2] was 4.21 µM (active).

In the case of `COc1ccccc1-c1nc(N2CCN(C)CC2)c2ccccc2n1`, the AC50 (Cytochrome P450 3A4) is reported as 31.6 µM (inconclusive).

In the case of `COc1ccc(-c2nc3cnc(OC)nc3n(C3CC3)c2=O)cc1`, the AC50 (Cytochrome P450 3A4) is reported as 0.0501 µM (inconclusive).

For `CC(C)(C)NC[C@@H](O)COc1cccc2[nH]c(C#N)cc12`, the AC50 (Cytochrome P450 1A2) was 31.6 µM (inconclusive).

With `COc1ccccc1-c1nc(NCc2ccccc2)c2ccccc2n1` the AC50 (Cytochrome P450 2C19; read-out: AC50) was 25.1 µM (inconclusive).

With `COc1ccc(NS(=O)(=O)c2cccc(C(=O)NC3CCN(Cc4ccccc4)CC3)c2)cc1` the EC50 [1] was 0.318 µM (active) and the EC50 [3] was > 30 µM (not active).

For `CCOC(=O)c1c(NC(=O)Nc2ccccc2)sc(C)c1C`, the AC50 (Cytochrome P450 3A4) was 25.1 µM (inconclusive).

With `CN(C)CCCNC(=O)CCc1nc(O)c2ccccc2n1` the AC50 (Cytochrome P450 2C19; read-out: AC50) was 7.08 µM (inconclusive) and the AC50 (Cytochrome P450 2C9) was 1 µM (inconclusive).

In the case of `CCn1c(C)nc2cc(C(=O)NNS(=O)(=O)c3ccccc3F)ccc21`, the AC50 (Cytochrome P450 2C9) is reported as 20 µM (inconclusive).

With `CCCc1nnc(NC(=O)C(CC)OC(=O)c2cc(C)nc3ccccc23)s1` (stereo not drawn) the AC50 (Cytochrome P450 2C19; read-out: AC50) was 15.8 µM (inconclusive) and the AC50 (Cytochrome P450 1A2) was 15.8 µM (inconclusive).

For `Cc1ccc2c(c1)-c1c(cnn1CC(=O)O)CO2`, the AC50 (Cytochrome P450 2C9) was 11.2 µM (inconclusive) and the AC50 (Cytochrome P450 1A2) was 0.794 µM (inconclusive).

For `COc1cccc(-c2sc3ccc(OC)cc3c2-c2ccc(O)cc2)c1`, the AC50 [2] was 2.67 µM (active).

With `COc1cc(OC)cc(-c2sc3ccc(OC)cc3c2C#CCCO)c1` the AC50 [2] was 4 µM (active).

With `Cc1cccc(OC(=O)CN2C(=O)C3C4CCC(C4)C3C2=O)c1C` (stereo not drawn) the AC50 (Cytochrome P450 2C9) was 2 µM (inconclusive).

With `Cc1ccc(C2C(=O)N(C3CCCC3)CC(=O)N2CC2COc3ccccc3O2)cc1` (stereo not drawn) the AC50 (Cytochrome P450 1A2) was 39.8 µM (inconclusive).

With `COC(=O)N1CC(=O)N(OC)C1c1ccc(Cl)cc1Cl` (stereo not drawn) the AC50 (Cytochrome P450 2C9) was 0.316 µM (inconclusive).

With `COC(=O)[C@@]1(Cc2ccccc2)[C@H]2c3cc(C(=O)N4CCCC4)n(CCO)c3C[C@H]2CN1C(=O)c1ccccc1` the AC50 (Cytochrome P450 2C19; read-out: AC50) was 0.00794 µM (inconclusive).

In the case of `Cc1cc(C)cc(Oc2nn[nH]n2)c1`, the AC50 (Cytochrome P450 2C9) is reported as 7.08 µM (inconclusive).

With `CN(C)CCCN1c2ccccc2Sc2cnccc21` the AC50 (Cytochrome P450 1A2) was 0.501 µM (inconclusive).

For `COc1ccc(C)cc1NC(=O)c1ccc([N+](=O)[O-])cc1[N+](=O)[O-]`, the EC50 [1] was 1.18 µM (active) and the EC50 [3] was > 60 µM (not active).

In the case of `Cc1cc(C)n(C(=O)c2cc3c(s2)CCCC3)n1`, the AC50 (Cytochrome P450 2C19; read-out: AC50) is reported as 2.24 µM (inconclusive) and the AC50 (Cytochrome P450 3A4) is reported as 39.8 µM (inconclusive).

For `COc1ccc(C(CCN)Cc2ccccc2)cc1` (stereo not drawn), the EC50 [3] was > 30 µM (not active).

For `N#CCCn1c(=O)cnc2cnc(N3CCOCC3)nc21`, the AC50 (Cytochrome P450 2C19) was “inconclusive”.

For `COc1ccc(-n2c(=O)c(CCc3ccccc3)nc3cnc(N(C)C)nc32)cc1`, the AC50 (Cytochrome P450 3A4) was 3.16 µM (inconclusive) and the AC50 (Cytochrome P450 1A2) was 3.16 µM (inconclusive).

For `CCOC(=O)c1[nH]c(C)c(C)c1C`, the AC50 (Cytochrome P450 2C19; read-out: AC50) was 17.8 µM (inconclusive) and the AC50 (Cytochrome P450 2C9) was 1.12 µM (inconclusive).

In the case of `CCCCCCCCCCCCN1[C@@H](CC(C)=O)c2cc(F)ccc2S1(=O)=O`, the AC50 [2] is reported as 5.3 µM (active).

With `Cc1cc(NC(=O)CCC(=O)N(CC2CCCO2)C(C(=O)NC2CCCC2)c2cccnc2)no1` (stereo not drawn) the AC50 (Cytochrome P450 3A4) was 1.41 µM (inconclusive) and the AC50 (Cytochrome P450 2C9) was 17.8 µM (inconclusive).

With `COC(=O)c1c(NC(=O)Cn2cc([N+](=O)[O-])cn2)sc2c1CCC2` the AC50 (Cytochrome P450 2C19; read-out: AC50) was 3.16 µM (inconclusive) and the AC50 (Cytochrome P450 2C9) was 3.55 µM (inconclusive).

With `CCn1c2ccccc2c2cc(/N=C3/SC(CC(=O)Nc4ccccc4OC)C(=O)N3C)ccc21` (stereo not drawn) the AC50 (Cytochrome P450 3A4) was 2.82 µM (inconclusive).

With `N[C@@H](Cn1oc(=O)[nH]c1=O)C(=O)O` [QUISQUALATE] the AC50 (Cytochrome P450 3A4) was 1 µM (inconclusive) and the AC50 (Cytochrome P450 1A2) was 39.8 µM (inconclusive).
